The values below come from patent US4393219A, “Salt of chlorhexidine” (Maruishi Pharmaceutical Co., Ltd., priority 1981, dated 1983).

In brackets after ≈: the same amount, converted by molar mass. Structures can show the parent of a compound that is named as a salt. Where two headings read alike, the source gives them in different places.

Data set [1] has as its system Proteus vulgaris IFO 3045. The data set is described as follows: Minimum inhibitory concentration, Proteus vulgaris. It counts as cell-based. The settings on record: trypticase soy broth (BBL), heart infusion agar; for MIC: Proteus vulgaris, IFO3045, P. vulgaris. As for the experimental part: Proteus vulgaris IFO 3045
(§1) The experiment was conducted according to the guide method which has been once revised and re-published by Japan Chemotherapy Association by using trypticase soy broth (BBL) as an incubation medium and heart infusion agar as a medium for determining susceptibility.

In data set [2] the test system is Pseudomonas aeruginosa IID 1117. The data set is described as follows: Minimum inhibitory concentration, Pseudomonas aeruginosa. In kind it is cell-based. The settings on record: trypticase soy broth (BBL), heart infusion agar; for Minimum inhibitory concentration: Ps. aeruginosa. As for the experimental part: Pseudomonas aeruginosa IID 1117
as §1

In data set [3] the test system is Acinetobacter anitratus RIMD 0102002. Briefly: Minimum inhibitory concentration, Acinetobacter anitratus. In kind it is cell-based. Particulars: trypticase soy broth (BBL), heart infusion agar; for MIC: Acinetobacter calcoaceticus, RIMD0102002, A. anitratus. As for the experimental part: Acinetobacter anitratus RIMD 0102002
as §1

In data set [4] the test system is Flavobacterium menigosepticum RIMD 0614002. The data set is described as follows: Minimum inhibitory concentration, Flavobacterium menigosepticum. In kind it is cell-based. Particulars: trypticase soy broth (BBL), heart infusion agar; for Minimum inhibitory concentration: F. menigosepticum. As for the experimental part: (1) Strains employed: Flavobacterium menigosepticum RIMD 0614002 (2) Method: The experiment was conducted according to the guide method which has been once revised and re-published by Japan Chemotherapy Association by using trypticase soy broth (BBL) as an incubation medium and heart infusion agar as a medium for determining susceptibility.

Data set [5] concerns Serratia marcescens IFO 12648. Briefly: Minimum inhibitory concentration, Serratia marcescens. It counts as cell-based. The settings on record: S. marcescens, trypticase soy broth (BBL), heart infusion agar; for MIC: Serratia marcescens, IFO12648. As for the experimental part: Serratia marcescens IFO 12648
as §1

For data set [6] the following is noted: prior art, cited from earlier work; for solubility in water and alcohols: water and alcohols such as methanol and ethanol, in words.
The nature of the next data set: LD50 in mice. Particulars: mouse, in vivo, route not stated.
Data set [7] deals with A. anitratus, F. menigosepticum, P. vulgaris, Ps. aeruginosa, S. marcescens. The data set is described as follows: Antibiotic activity compared with chlorhexidine digluconate (five strains together). In kind it is cell-based. As for the experimental part:
as §1

The nature of a further data set: Solubility. It counts as physicochemical. The settings on record: in words.

By MIC is commonly meant the lowest concentration found to suppress growth. With `O=C1CC[C@@H](C(=O)O)N1` [Pyrrolidone-carboxylic acid, 2-Pyrrolidone-5-carboxylic acid], the MIC was 4000 µg/mL (≈ 31 mM) in data set [1]; 4000 µg/mL (≈ 31 mM) in data set [2] (Pseudomonas aeruginosa, IID1117, Ps. aeruginosa); 4000 µg/mL (≈ 31 mM) in data set [3]; 4000 µg/mL (≈ 31 mM) in [4] (Flavobacterium, RIMD0614002, F. menigosepticum); 4000 µg/mL (≈ 31 mM) in data set [5].

For the molecule `[H]/N=C(\N/C(=N/[H])NCCCCCCNC(=N)NC(=N)Nc1ccc(Cl)cc1)Nc1ccc(Cl)cc1` [Chlorhexidine dihydrochloride], in data set [6], the “solubility in water and alcohols” value was “sparingly soluble”; the solubility in water is listed as 1 g per 10,000 ml.

As to `[H]/N=C(\N/C(=N/[H])NCCCCCCNC(=N)NC(=N)Nc1ccc(Cl)cc1)Nc1ccc(Cl)cc1` [Chlorhexidine disulfate], in data set [6], the “solubility in water and alcohols” value was “sparingly soluble”; the solubility in water is reported as 1 g per 10,000 ml.

In the case of `[H]/N=C(\N/C(=N/[H])NCCCCCCNC(=N)NC(=N)Nc1ccc(Cl)cc1)Nc1ccc(Cl)cc1` [Chlorhexidine diacetate], in data set [6], the “solubility in water and alcohols” value was “sparingly soluble”; the solubility in water is recorded as 1 g per 10,000 ml.

The term LD50 denotes the dose at which mortality reaches 50%. Lower therefore signals greater toxicity. Regarding `[H]/N=C(\N/C(=N/[H])NCCCCCCNC(=N)NC(=N)Nc1ccc(Cl)cc1)Nc1ccc(Cl)cc1` [Salt of this invention, chlorhexidine di-2-pyrrolidone-5-carboxylate], the Minimum inhibitory concentration in data set [1] (P. vulgaris) was found to be 125 µg/mL; in data set [2] it was 15.6 µg/mL; in data set [3] (A. anitratus) it was 31.3 µg/mL; in data set [4] it was 31.3 µg/mL; in [5], 125 µg/mL. The molecule also came in with an LD50 in “LD50 in mice” of approximately 2000 mg/kg. In addition, the antibiotic activity entry in data set [7] is “more potent antibiotic activity than the known chlorhexidine digluconate”. Moreover, in “Solubility” (acetone, chloroform and ether), the “solubility in acetone, chloroform and ether” value was “insoluble in acetone, chloroform and ether”. Moreover, the “solubility in water and alcohols” value in the data set “Solubility” (water and alcohols) is “soluble in water and alcohols”.

As to `[H]/N=C(\N/C(=N/[H])NCCCCCCNC(=N)NC(=N)Nc1ccc(Cl)cc1)Nc1ccc(Cl)cc1` [Chlorhexidine digluconate, chlorhexidine digluconate], the minimum inhibitory concentration (MIC) in [1] is 250 µg/mL; in data set [3], 62.5 µg/mL; in [5] it was 125 µg/mL. Moreover, the Minimum inhibitory concentration in data set [2] turned out to be 31.3 µg/mL; in data set [4], 125 µg/mL. Further, the “solubility in water and alcohols” value in data set [6] is “superior solubility in water and alcohols”.
